“Also recorded” adds a separate entry of the source.
What was measured:
[1] = tested on: human PBMCs; assay: Cytokine release from freshly isolated PBMCs (standard culture), cytokine bead array; format: cell-based; settings: fresh PBMCs, 10^6/ml, mAb 1 μg/ml, 24 hours
Excerpt: For the induction of cytokine release, the present invention as well as this comparative example uses a system of PBMC stimulation as described below to study the response of human PBMCs to immune-modulating agents. This system employs freshly prepared PBMCs, isolated from heparinized venous blood by centrifugation over a density gradient (Lymphocyte Separation Medium LSM 1077, PAA Laboratories, Pasching, Germany) following the manufacturer's instructions. […]
In this tissue culture system, freshly isolated PBMCs were stimulated with soluble TGN1412 provided by TheraMab GmbH, Wurzburg. […] After 24 hours, a panel of cytokines including the major pro- and anti-inflammatory factors detected in plasma of the volunteers of the TGN1412 trial (Suntharalingam et al., 2006) were analyzed by the cytokine-bead-array (CBA) technology (Becton Dickinson, Mountain View, Calif., USA) following the manufacturer's instructions. […]
PBMCs from a healthy donor were isolated by Ficoll density centrifugation and cultured in 0.2 ml RPMI1640 medium supplemented with 10% AB serum for 24 hours at 10^6/ml in 96 well flat bottom tissue culture plates. Cytokines in the supernatants were analyzed after 24 hours of incubation by cytokine bead array. […]

[2] = tested on: human PBMCs; assay: Cytokine release from precultured PBMCs restimulated at 10^6/ml, cytokine bead array; format: cell-based; settings: high-density precultured PBMCs, mAb 1 μg/ml, OKT3 compared with TGN1412
Experimental: For the experiment in FIG. 1B PBMCs from a healthy donor were cultured in 1.5 ml medium for 2 days at 10^7/ml in 24 well flat bottom tissue culture plates before being washed and readjusted to 10^6/ml. With these cells, the same experiment was performed as described in Example 1.
For the experiment of FIG. 3 PBMCs were cultured at 10^6/ml (left bars) or at 10^7/ml (right bars) for 2 days before being stimulated by TGN1412 at 10^6/ml as described in FIG. 1.
For the experiment of FIG. 4 fresh PBMCs (left bars of triplets), and PBMCs precultured at 10^7/ml for 24 (middle bars of triplets) or 48 hours (right bars of triplets) were stimulated with OKT3 or TGN1412 for 24 hours under the conditions given in FIG. 1.
For the experiment of FIG. 5 PBMCs were cultured for two days at high density (10^7/ml, right bars of triplets) or at low density (10^6/ml, left and middle bars of triplets) in 1.5 ml cultures. In the group shown as middle bars of triplets, these low density cultures additionally contained an insert with a semipermeable membrane on which additional PBMCs were cultured at high-density (10^6/ml below membrane, 10^7/ml above membrane, middle bars of triplets).
Cell density. […]
High-density precultured PBMCs were prepared as in FIG. 1B and stimulated with 1 μg/ml of OKT3 or TGN1412. Supernatants were harvested at the times indicated and TNF content was analysed as in FIG. 1.

[3] = tested on: human PBMCs; assay: PBMC proliferation, 3H-thymidine incorporation; format: cell-based; settings: 3H-thymidine on day 3, 16 hours
Experimental: Fresh and precultured PBMCs were prepared and cultured as described for FIGS. 1 A and B, respectively. On day 3, 1 μCi of 3H-thymidine was added, and cultures were harvested 16 hours later and processed for liquid scintillation counting. Besides cytokine release, polyclonal T-cell activation results in proliferation which can be measured as radioactivity incorporated, here incorporated as tritiated thymidine. […] Thus, proliferation can also be used as a readout.

[4] = tested on: CD4 T-cells in PBMCs; assay: Intracellular TNF / IFN-gamma staining of CD4 T-cell subsets (flow cytometry, brefeldin A); format: cell-based, human; settings: mAb 1 μg/ml, 18 hours, brefeldin A last 4 hours; CD45RO+ vs CD45RO- CD4 T-cells
Experimental: 2 day high-density precultured PBMCs were stimulated for 18 hours with 1 μg/ml of OKT3 or of TGN1412. Instead of 18 hours stimulation for a period of time between 15 to 20 hours, preferably 16 to 18 hours, is generally possible. During the last 4 hours of culture, 5 μg/ml of brefeldin A was added to block cellular export of cytokines. After cell-surface staining with fluorochome-conjugated mAb to CD4 and CD45RO (memory marker), cells were fixed, permeabilized and stained with mAb to TNF—left panels—or IFNgamma—right panels—(all from BD Pharmingen, Mountain View, Calif., USA)
15.000 live-gated events were acquired on a BD Calibur flow cytometer and data were analyzed using FlowJo software (Three Star Inc., Ashland, Oreg., USA). The cytokine storm elicited by OKT3 in patients is a well-known phenomenon, and the accompanying information provided with this drug (Muromonomab, Janssen-CILAG) explicitly warns against this syndrome. […] In parallel, the cell surface phenotype of the stimulated PBMCs was determined. The main cytokine-producing T-cell subset, the CD4 T-cells, were thus identified and further subdivided into naive (CD45R0−) and memory (CD45RO+) subsets.

[5] = tested on: patients; settings: patients receiving mAb therapy; cited from earlier work
[6] = tested on: PBMCs; format: cell-based, human
[7] = tested on: PBMCs; format: cell-based, human; remark: listed apart in the source

Substance: OKT3: CD3-specific mAb addressing the T-cell antigen receptor, clinical-grade, Janssen-Cilag
- cytokine release (TNF, IFN-gamma, IL-2, IL-10) [1]: highly effective in inducing TNF, IFN-gamma, and IL-2; also recorded: ability
- kinetics of TNF release [2]: follows the same kinetics
- proliferation ([3]; 2 day high-density precultured PBMCs): stimulated the proliferation of both, fresh and precultured PBMCs
- proliferation ([3]; fresh PBMCs): stimulated the proliferation of both, fresh and precultured PBMCs
- cellular source of TNF and IFN-gamma production [4]: predominantly in the CD4 memory subset
- systemic cytokine release [5]: induce the systemic release of proinflammatory cytokines

Substance: Staphylococcal Enterotoxin B
- proliferative response [6]: strongly enhances the sensitivity of this assay

Substance: phytohemagglutinin [PHA]
- proliferative T-cell response [7]: strongly enhanced

Substance: concanavalin A [ConA]
- proliferative T-cell response [7]: strongly enhanced

— patent US20110082091A1, “Method for Preclinical Testing of Immunomodulatory Drugs” (TheraMAB GmbH, priority 2009, published 2011)
